# Source: patent US4196205A, “3-Acetoxymethyl-7-(iminoacetamido)-cephalosporanic acid derivatives” (priority 1976, dated 1980)
# Like-named read-outs stand apart in the source and are kept apart here.
# Tests used:
# [1] = test system: Bacillus subtilis ATCC 6 633; experiment: MIC, dilution in liquid medium; type: cell-based; settings: for MIC: Bacillus subtilis
# Procedure: (§1) The method used was a dilution of a liquid medium where a series of tubes received the same quantity of a sterile nutritive media and increasing doses of the test compounds were placed therein. Then each tube was seeded with a bacterial strain and was incubated for 24 to 48 hours at 37° C. in an oven. The increasing inhibition was determined by transillumination to determine the minimum inhibiting concentration (MIC in […]) and the results are reported in the following Tables.
# [2] = test system: Proteus vulgaris (indol+) A 232; experiment: MIC, dilution in liquid medium; type: cell-based; settings: for MIC: Proteus vulgaris
# Procedure: as §1
# [3] = test system: Serratia Resistant Gentamicine 2 532; experiment: MIC, dilution in liquid medium; type: cell-based
# Procedure: as §1
# [4] = test system: Staphylococcus aureus ATCC 5 638 Pen-Sensible = UC 1061; experiment: MIC, dilution in liquid medium; type: cell-based
# Procedure: as §1
# [5] = test system: Proteus mirabilis (indol-) A 235; experiment: MIC, dilution in liquid medium; type: cell-based; settings: Proteus mirabilis
# Procedure: as §1
# [6] = test system: Salmonella typhimurium 420; experiment: MIC, dilution in liquid medium; type: cell-based; settings: for MIC: Salmonella enterica, TYPHIMURIUM
# Procedure: as §1
# [7] = test system: Klebsiella pneumoniae Exp. 52 145; experiment: MIC, dilution in liquid medium; type: cell-based; settings: Klebsiella pneumoniae
# Procedure: as §1
# [8] = test system: Streptococcus faecalis 99 F 74; experiment: MIC, dilution in liquid medium; type: cell-based; settings: Enterococcus faecalis
# Procedure: as §1
# [9] = test system: Escherichia Coli Resistant Tetracycline ATCC 11 303 = UC 1261; experiment: MIC, dilution in liquid medium; type: cell-based; settings: Escherichia coli
# Procedure: as §1
# Providencia Du 48 = experiment: MIC, dilution in liquid medium; type: cell-based; settings: Providencia
# Procedure: as §1
# [10] = test system: Staphylococcus aureus exp. n° 54 146; experiment: MIC, dilution in liquid medium; type: cell-based; settings: Staphylococcus aureus
# Procedure: as §1
# [11] = test system: Escherichia Coli Sensible Tetracycline ATCC 9 637 = 1020; experiment: MIC, dilution in liquid medium; type: cell-based; settings: for MIC: Escherichia coli
# Procedure: as §1
# [12] = test system: Staphylococcus aureus UC 1 128 Pen-Resistant; experiment: MIC, dilution in liquid medium; type: cell-based; settings: for MIC: Staphylococcus aureus
# Procedure: as §1
# [13] = test system: Pseudomonas 3 935 Exp. SG; experiment: MIC, dilution in liquid medium; type: cell-based; settings: for MIC: Pseudomonas, 3935EXP.SG
# Procedure: as §1
# [14] = test system: Escherichia Coli Exp. TO26 B6; experiment: MIC, dilution in liquid medium; type: cell-based; settings: for MIC: Escherichia coli
# Procedure: as §1
# [15] = test system: Escherichia Coli Resistant Gentamicine, Tobramycine R 55 123 D; experiment: MIC, dilution in liquid medium; type: cell-based; settings: Escherichia coli
# Procedure: as §1
# [16] = test system: Streptococcus pyogenes A 561; experiment: MIC, dilution in liquid medium; type: cell-based; settings: Streptococcus pyogenes
# Procedure: as §1
# [17] = test system: Streptococcus faecalis 5 432; experiment: MIC, dilution in liquid medium; type: cell-based
# Procedure: as §1
# [18] = test system: Klebsiella pneumoniae 2 536 Resistant Gentamicine; experiment: MIC, dilution in liquid medium; type: cell-based; settings: Klebsiella pneumoniae
# Procedure: as §1
# Proteus Mirabilis A 235 = experiment: Experimental infection of Proteus Mirabilis in mice; type: in vivo
# Procedure: Groups of 10 mice with an average weight of 22 g received intraperitoneally 0.5 ml of a 24 hour old culture in oxoid bouillon of Proteus Mirabilis A 235 diluted 1/4 with distilled water. The mice then received subcutaneously the compound of Examples 11 or 15 one hour and 5 and 24 hours after the infection and the results are reported in the following Table.
# [19] = Enterococcus faecalis, 5432, 48 h, 48 H
compound,measurement,setting,value
"CO/N=C(/C(=O)NC1C(=O)N2C(C(=O)O)=C(COC(C)=O)CSC12)c1csc(N)n1 (stereo not drawn) [Product A, anti isomer of 3-acetoxymethyl-7-[2-(2-amino-4-thiazolyl)-2-methoxyimino-acetamido]-ceph-3-eme-4-carboxylic acid]",MIC,"[1]; ATCC6, 24 h, 24 H",20 µg/mL
same,MIC,"[1]; ATCC6, 48 h, 48 H",20 µg/mL
same,MIC,[2]; 24 h,> 40 µg/mL
same,MIC,[2]; 48 h,> 40 µg/mL
same,MIC,[3]; 24 h,> 40 µg/mL
same,MIC,[3]; 48 h,> 40 µg/mL
same,MIC,[4]; 24 h,40 µg/mL
same,MIC,[4]; 48 h,40 µg/mL
same,MIC,[5]; 24 h,2 µg/mL
same,MIC,[5]; 48 h,2 µg/mL
same,MIC,[6]; 24 h,20 µg/mL
same,MIC,"[7]; EXP.52145, 24 h, 24 H",1 µg/mL
same,MIC,"[7]; EXP.52145, 48 h, 48 H",1 µg/mL
same,MIC,"[8]; 99F74, 24 h, 24 H",> 40 µg/mL
same,MIC,"[8]; 99F74, 48 h, 48 H",> 40 µg/mL
same,MIC,[9]; 24 h,2 µg/mL
same,MIC,[9]; 48 h,2 µg/mL
same,MIC,"Providencia Du 48; DU48, 24 h, 24 H",40 µg/mL
same,MIC,"Providencia Du 48; DU48, 48 h, 48 H",> 40 µg/mL
same,MIC,[10]; 24 h,40 µg/mL
same,MIC,[10]; 48 h,40 µg/mL
same,MIC,"[11]; ATCC9, 24 h, 24 H",20 µg/mL
same,MIC,"[11]; ATCC9, 48 h, 48 H",40 µg/mL
same,MIC,"[12]; UC1, 24 h, 24 H",> 40 µg/mL
same,MIC,"[12]; UC1, 48 h, 48 H",> 40 µg/mL
same,MIC,[13]; 24 h,> 40 µg/mL
same,MIC,[13]; 48 h,> 40 µg/mL
same,MIC,[14]; 24 h,5 µg/mL
same,MIC,[14]; 48 h,5 µg/mL
same,MIC,"[15]; 24 h, read-out: M.I.C.",10 µg/mL
same,MIC,"[15]; 48 h, read-out: M.I.C.",10 µg/mL
same,MIC,"[16]; A561, 24 h",0.4 µg/mL
same,MIC,"[16]; A561, 48 h",0.4 µg/mL
same,MIC,"[17]; Enterococcus faecalis, 5432, 24 h, 24 H",> 40 µg/mL
same,MIC,[17]; [19],> 40 µg/mL
same,MIC,[18]; 24 h,> 40 µg/mL
same,MIC,[18]; 48 h,> 40 µg/mL
"CCO/N=C(\C(=O)N[C@@H]1C(=O)N2C(C(=O)O)=C(COC(C)=O)CS[C@H]12)c1csc(N)n1 [Example 11, 3-acetoxymethyl-7-[2-(2-amino-4-thiazolyl)-2-ethoxyiminoacetamido]-ceph-3-eme-4-carboxylic acid]",MORTALITY AFTER 21H30,Proteus Mirabilis A 235; 0.025 mg subcutaneously,3
same,MORTALITY AFTER 22H15,Proteus Mirabilis A 235; 0.025 mg subcutaneously,1
same,MORTALITY AFTER 24H20,Proteus Mirabilis A 235; 0.025 mg subcutaneously,1
same,MORTALITY AFTER 28H,Proteus Mirabilis A 235; 0.025 mg subcutaneously,2
same,MORTALITY AFTER 46H,Proteus Mirabilis A 235; 0.025 mg subcutaneously,2
same,MORTALITY AFTER 53H,Proteus Mirabilis A 235; 0.025 mg subcutaneously,1
same,Mice Alive on the 8th day,Proteus Mirabilis A 235; 0.025 mg subcutaneously,0/10
same,MORTALITY AFTER 22H15,Proteus Mirabilis A 235; 0.05 mg subcutaneously,1
same,MORTALITY AFTER 24H20,Proteus Mirabilis A 235; 0.05 mg subcutaneously,1
same,MORTALITY AFTER 31H45,Proteus Mirabilis A 235; 0.05 mg subcutaneously,1
same,MORTALITY AFTER 70H,Proteus Mirabilis A 235; 0.05 mg subcutaneously,2
same,Mice Alive on the 8th day,Proteus Mirabilis A 235; 0.05 mg subcutaneously,5/10
same,MORTALITY AFTER 28H,Proteus Mirabilis A 235; 0.1 mg subcutaneously,1
same,MORTALITY AFTER 46H,Proteus Mirabilis A 235; 0.1 mg subcutaneously,2
same,Mice Alive on the 8th day,Proteus Mirabilis A 235; 0.1 mg subcutaneously,7/10
same,Mice Alive on the 8th day,Proteus Mirabilis A 235; 0.25 mg subcutaneously,10/10
same,Mice Alive on the 8th day,Proteus Mirabilis A 235; 0.5 mg subcutaneously,10/10
same,Mice Alive on the 8th day,Proteus Mirabilis A 235; 1 mg subcutaneously,10/10
same,M.I.C.,[1]; 24 H,"0,5 μg/ml"
same,MIC,"[1]; ATCC6, 24 h, 24 H, read-out: M.I.C.",0.4 µg/mL
same,MIC,"[1]; ATCC6, 48 h, 48 H, read-out: M.I.C.",0.4 µg/mL
same,M.I.C.,[2]; 48 H,1 µg/mL
same,MIC,"[2]; 24 h, read-out: M.I.C.",0.5 µg/mL
same,MIC,[2]; 48 h,2 µg/mL
same,MIC,[3]; 24 h,2 µg/mL
same,MIC,[4]; 24 h,2 µg/mL
same,MIC,"[5]; 24 h, read-out: M.I.C.",0.5 µg/mL
same,MIC,"[5]; 48 h, read-out: M.I.C.",0.5 µg/mL
same,M.I.C.,[6]; 24 H,2 µg/mL
same,M.I.C.,[6]; 48 H,2 µg/mL
same,MIC,[6]; 24 h,1 µg/mL
same,MIC,[6]; 48 h,1 µg/mL
same,MIC,"[7]; EXP.52145, 24 h, 24 H, read-out: M.I.C.",0.2 µg/mL
same,MIC,"[7]; EXP.52145, 48 h, 48 H, read-out: M.I.C.",0.2 µg/mL
same,MIC,"[8]; 99F74, 48 h, 48 H",20 µg/mL
same,MIC,[9]; 24 h,≤ 0.2 µg/mL
same,MIC,"[9]; 24 h, read-out: M.I.C.",0.5 µg/mL
same,MIC,"Providencia Du 48; DU48, 24 h, 24 H",5 µg/mL
same,MIC,"Providencia Du 48; DU48, 48 h, 48 H",5 µg/mL
same,MIC,[10]; 24 h,2 µg/mL
same,M.I.C.,[11]; 24 H,2 µg/mL
same,M.I.C.,[11]; 48 H,2 µg/mL
same,MIC,"[11]; ATCC9, 24 h, 24 H",1 µg/mL
same,MIC,"[11]; ATCC9, 48 h, 48 H",1 µg/mL
same,M.I.C.,[12]; 24 H,3 µg/mL
same,M.I.C.,[12]; 48 H,5 µg/mL
same,MIC,"[12]; UC1, 24 h, 24 H",2 µg/mL
same,MIC,"[12]; UC1, 48 h, 48 H",3 µg/mL
same,M.I.C.,[13]; 24 H,40 µg/mL
same,MIC,[13]; 24 h,20 µg/mL
same,MIC,[13]; 48 h,40 µg/mL
same,M.I.C.,[14]; 24 H,0.4 µg/mL
same,M.I.C.,[14]; 48 H,0.4 µg/mL
same,MIC,[15]; 24 h,1 µg/mL
same,MIC,"[15]; 24 h, read-out: M.I.C.",0.6 µg/mL
same,MIC,[15]; 48 h,1 µg/mL
same,MIC,"[15]; 48 h, read-out: M.I.C.",0.6 µg/mL
same,MIC,"[16]; A561, 24 h, 24 H, read-out: M.I.C.",0.02 µg/mL
same,MIC,"[16]; A561, 48 h, 48 H, read-out: M.I.C.",0.02 µg/mL
same,MIC,[17]; [19],40 µg/mL
same,MIC,"[17]; Enterococcus faecalis, 5432, 48 h, read-out: M.I.C.",10 µg/mL
same,MIC,[18]; 24 h,2 µg/mL
same,MIC,"[18]; 24 h, read-out: M.I.C.",10 µg/mL
same,MIC,[18]; 48 h,2 µg/mL
same,MIC,"[18]; 48 h, read-out: M.I.C.",10 µg/mL
